The record followed here is patent US5492896A, “Pseudopeptides having an antiviral action” (Bayer Aktiengesellschaft, priority 1993, dated 1996).

Read-outs that look alike come from different tables or passages of the source. Numbered stars: 1 amine (or outer) side, 2 acyl side, 3 side chain; on linkers, the order of the positions; unused ones are H or OH. Square brackets hold non-standard residues; d marks the D form. Peptide text beside a SMILES is read from it. * marks the point of attachment. Tos = Cc1ccc(S(=O)(=O)*)cc1; CO = O=C([*:1])[*:2]

One data set has as its system HCMV (Davis strain). In words: Anti-HCMV screening test: spread of cytopathogenic effect in HELF cell cultures. The format is cell-based, human cytomegalovirus. The note with it: concentration causing 50% inhibition of the CPE, HELF cells, 6 days. The method, then: (§1) The anti-HCMV action was determined in a screening test system in 96-well microtitre plates with the aid of human embryonal lung fibroblasts (HELF) cell cultures. The influence of the substances on the spread of the cytopathogenic effect was determined in comparison with the reference substance ganciclovir ([…]®-sodium), a clinically approved anti-HCMV chemotherapeutic. The substances are dissolved in DMSO (dimethyl sulphoxide; 50 mM) and investigated on microtitre plates (96-well) in final concentrations of 1000-0.00048 μM (micromolar) in duplicate determinations (4 substances/plate). Toxic and cytostatic actions of the substances are also recorded here. After the appropriate dilutions of the substances (1:2) on the microtitre plate, a suspension of 50-100 HCMV-infected HELF cells and 3×10^4 non-infected HELF cells in Eagle's MEM (minimal essential medium) with 10% foetal calf serum is introduced into each cup and the plates are incubated at 37° C. in a CO2 incubating cabinet for 6 days. After this period, the cell lawn in the substance-free virus controls, starting from 50-100 infectious centres, is completely destroyed by the cytopathogenic effect (CPE) of the HCMV (100% CPE). After staining with neutral red and fixing with formalin/methanol, the plates are evaluated with the aid of a projection microscope (Plaque Viewer). […]
For orientation: Damage to the host cells serves as the signal in cytopathic effect assays.

For data set [1], the system named is human embryonal lung fibroblasts (HELF). As to the kind of experiment: Anticellular (toxic and cytostatic) action in the anti-HCMV screening test. The format is cell-based. Here is the method:
as §1

The target of the next data set is T1, HIV protease (HIV-1) (Human immunodeficiency virus type 1 group M subtype B, UniProt P04585).
T1 construct: purified HIV protease was incubated with a synthetic peptide
As to the kind of experiment: HIV-specific protease enzyme test (synthetic peptide cleavage, RP-HPLC). To be noted: 50% inhibition of protease activity; purified HIV protease, synthetic Gag cleavage-site peptide. The format is biochemical. Here is the method: This is documented by an HIV-specific protease enzyme test.
The results of the examples described below were determined by the HIV test system described in the following literature references [compare Hansen, J., Billich, S., Schulze, T., Sukrow, S. and Molling, K. (1988), EMBO Journal, volume 7, No. 6, pages 1785-1791]: purified HIV protease was incubated with a synthetic peptide which imitates a cutting site in the Gag precursor protein and represents an in vivo cleavage site of HIV protease. The cleavage products formed from the synthetic peptide were analysed by reverse phase high performance liquid chromatography (RP-HPLC). The IC50 values stated relate to the substance concentration which causes 50% inhibition of protease activity under the abovementioned test conditions.

As a reminder, the IC50 is the concentration at which inhibition is half-maximal. Read a high IC50 as weaker potency. Compound `Nc1nc(O)c2ncn(COC(CO)CO)c2n1` [Namevene ®, ganciclovir] gave an IC50 with HCMV (Davis strain) (Human betaherpesvirus 5, 144 h) of 2 to 4 µM. In data set [1] (maximum concentration which displays no evident anticellular action, HELF cells, 6 days), the “CIC50 (μM) HELF” value is 125 µM.

`CC(C)[C@H](NC(=O)[C@H](CCCNC(=N)N)NC(=O)N[C@@H](Cc1ccccc1)C(=O)O)C(=O)N[C@H](C=O)Cc1ccccc1` [VIII, (2S)-2-{Nα -[((1S)-1-Carboxy-2-phenyl-ethyl)aminocarbonyl]-S-arginyl-S-valinyl}amino-3-phenyl-propan-1-al] ({Phe-CO}-Arg-Val-Phe-aldehyde) gave an IC50 on HIV protease (HIV-1) of 19 µM. In turn, `CC(C)[C@H](NC(=O)[C@H](CCCNC(=N)N)NC(=O)N[C@@H](Cc1ccccc1)C(=O)O)C(=O)N[C@@H](C=O)Cc1ccccc1` [IX, (2R)-2-{Nα -[((1S)-1-Carboxy-2-phenyl-ethyl)aminocarbonyl]-S-arginyl-S-valinyl}amino-3-phenyl-propan-1-al] ({Phe-CO}-Arg-Val-[dF]-aldehyde) returned an IC50 on HIV protease (HIV-1) of 160 µM. With `COC(=O)[C@H](Cc1ccccc1)NC(=O)N[C@@H](CCCNC(=N)NS(=O)(=O)c1ccc(C)cc1)C(=O)N[C@H](C(=O)N[C@@H](C=O)Cc1ccccc1)C(C)C` [Example 4] ({OMe-Phe-CO}-Arg(Tos)-Val-[dF]-aldehyde), it took 1.95 µM to reach half-maximal inhibition with HCMV (Davis strain) (IC50). Moreover, in data set [1], the “CIC50 (μM) HELF” value is 62.5 µM.
